Test results reported in ChEMBL document CHEMBL6134836, “Medicinal Chemistry: A Key Driver in Achieving the Global Sustainable Development Goals” (J Med Chem, 2025).

Experiments:
dengue virus type 4 = assay: Antiviral activity against Dengue virus 4 infected in syrian hamster BHK-21 cells assessed as inhibition of plaque formation pretreated with compound for 45 mins followed by viral infection for 24 hrs; format: functional; details: BHK-21, 24.75 h, time 1485 min
dengue virus type 1 = assay: Antiviral activity against Dengue virus 1 infected in syrian hamster BHK-21 cells assessed as inhibition of plaque formation pretreated with compound for 45 mins followed by viral infection for 24 hrs; format: functional; details: BHK-21, 24.75 h, time 1485 min
dengue virus type 2 = assay: Antiviral activity against Dengue virus 2 infected in syrian hamster BHK-21 cells assessed as inhibition of plaque formation pretreated with compound for 45 mins followed by viral infection for 24 hrs; format: functional; details: BHK-21, 24.75 h, time 1485 min
[1] = Cytotoxicity against mouse BaF3 cells expressing BCR-ABL assessed as cell viability; format: toxicity, cell-based
Kunjin virus = assay: Antiviral activity against Kunjin virus; format: functional, organism-based; details: West Nile virus
dengue virus type 3 = assay: Antiviral activity against Dengue virus 3 infected in syrian hamster BHK-21 cells assessed as inhibition of plaque formation pretreated with compound for 45 mins followed by viral infection for 24 hrs; format: functional; details: BHK-21, 24.75 h, time 1485 min

For NC(=O)c1cccc(-c2cc(Nc3ccc(OC(F)(F)F)cc3)ncn2)c1, the IC90 (dengue virus type 4) was 20 µM, the IC90 (dengue virus type 1) was 20 µM and the IC90 (dengue virus type 2) was 20 µM. The IC50 [1] was > 10 µM, the EC50 (Kunjin virus) was > 20 µM and the IC90 (dengue virus type 3) was 20 µM.
